From patent US7300764B2, “Method for identifying agonists and antagonists of the GPR45-like/GPR63 receptor” (Sanofi-Aventis Deutschland GmbH, priority 2002, dated 2007)

Columns and labels:
[1] = target: T1, GPR45 like/GPR63 receptor (Homo sapiens, UniProt Q9BZJ6); experiment: FLIPR assay, stimulation of intracellular Ca2+ release in transfected CHO cells; assay type: cell-based; design: The PCR fragment with a length of 1,260 base pairs which was formed by the PCR described above was incorporated; expressed in transfected cells; host or cells: CHO-K1 cells, transient transfection with Lipofectamine; conditions: final concentration of 1 μM; CHO cells expressing GPR45 like/GPR63 receptor and G protein α subunit delta 6qi4mgr
T1 sequence (Q9BZJ6 whole entry, the tested form may be a part): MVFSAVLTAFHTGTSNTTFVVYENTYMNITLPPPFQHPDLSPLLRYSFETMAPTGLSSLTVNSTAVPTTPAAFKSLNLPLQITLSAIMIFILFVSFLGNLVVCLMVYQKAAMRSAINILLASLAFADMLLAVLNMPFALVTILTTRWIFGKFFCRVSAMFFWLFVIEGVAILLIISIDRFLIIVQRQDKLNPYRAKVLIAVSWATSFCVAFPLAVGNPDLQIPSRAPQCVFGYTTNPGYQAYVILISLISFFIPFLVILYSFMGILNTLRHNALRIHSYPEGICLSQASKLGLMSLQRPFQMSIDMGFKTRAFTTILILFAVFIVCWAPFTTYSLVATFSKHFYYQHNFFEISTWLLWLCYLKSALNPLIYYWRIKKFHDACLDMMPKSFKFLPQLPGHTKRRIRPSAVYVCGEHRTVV
Description: CHO-K1 cells were cultivated in basal Iscove's medium with further additions. Iscove's medium is commercially available from, for example, Biochrom, Berlin. The composition was described for the first time in N. N. Iscove and F. Melchers, Journal of Experimental Medicine 147, 923-933 (1978). 10% fetal bovine serum, 10 000 U/ml-10 000 μg/ml penicillin-streptomycin, gentamycin, and 2 mM L-glutamine were used as further additions to Iscove's medium. The cells were incubated at 37° C. with a 5% CO2 atmosphere.
About 2×10^5 CHO-K1 cells were seeded in 35 mm dishes for the transient transfection. After further incubation for about 24 hours and with the cells at about 50-80% confluence, the cells were transiently transfected with 1 μg of the plasmid DNA construct with the assistance of Lipofectamine (Gibco).
About 16 to 18 hours after the transfection, the CHO cells were put in an amount of about 80,000 cells per well in 96-well plates and incubated further for about 18-24 hours. […]
After the last washing step, 100 μl were left on the cells in each well. […] A 60 μM solution was kept ready on a 96-well microtiter plate. […]
The fluorescence was measured by a Fluorometric Imaging Plate Reader (FLIPR®, Molecular Devices, Sunnyvale, Calif.) for 1 min in intervals lasting 1 sec and for a further 2 min in 3-second intervals. […]

[2] = target: T1, GPR45 like/GPR63 receptor; experiment: Cell growth assay in transfected CHO cells; assay type: cell-based; design: The PCR fragment with a length of 1,260 base pairs which was formed by the PCR described above was incorporated; expressed in transfected cells; host or cells: CHO cells, transient transfection with Lipofectamine; conditions: 1 μM S1P, 48 hours, Iscove's medium with 10% dialyzed fetal calf serum, average of 2 independent tests
Description: CHO cells were put in an amount of 8×10^4 cells into 35 mm plates. After 32 hours, the cells were transfected with 1 μg of the plasmid construct using Lipofectamine (Gibco). After a further 13 hours (time 0), the cells were washed with PBS and incubated in Iscove's medium which contained 10% dialyzed fetal calf serum for 48 hours (time 48), specifically in the presence or absence of 1 μM S1P (sphingosine 1-phosphate).
The number of cells at time 0 and time 48 was determined by counting. This was done by first treating the cells with trypsin and then suspending them in 1 ml of Iscove's. An amount of 100 μl of these cells was diluted in 10 ml of buffer and counted in a cell counter, e.g. in the Casy Cellcounter TT (Cell Counter und Analysesystem, Schärfe, Reutlingen).
An amount of 8×10^4 CHO cells was seeded onto 35 mm plates. The cells were transfected after 32 hours with 1 μg of DNA of the vector construction. After 13 hours, the cells were washed once with PBS and incubated in Iscove's medium containing 10% dialyzed fetal calf serum in the presence or absence of 1 μM S1P for a further 48 hours.

Compound	Ca^2+ influx [1]	more cells (cell number vs absence of S1P) [2]
CCCCCCCCCCCCCCC[C@@H](O)[C@@H](N)COP(=O)(O)O [DHS1P, dihydrosphingosine 1-phosphate]	led to a measurable Ca^2+ influx	
CCCCCCCCCCCCC/C=C/[C@@H](O)[C@@H](N)COP(=O)(O)O [S1P, sphingosine 1-phosphate]	led to a measurable Ca^2+ influx	about 20%
